Results: US20160031925A1, “AZITHROMYCIN ANTIMICROBIAL DERIVATIVES WITH NON-ANTIBIOTIC PHARMACEUTICAL EFFECT” (priority 2013, published 2016)
Like-named read-outs stand apart in the source and are kept apart here.

Tests used:
[1] = tested on: human airway epithelia; details: reference 6; cited from earlier work
[2] = tested on: Staphylococcus aureus ATTC 6538; assay: Antimicrobial disk susceptibility test (CLSI M2-A9), S. aureus; type: cell-based
Experimental: (§1) Test for the antimicrobial activity of the novel compounds may be performed according to the standards of Clinical and Laboratory Standards Institute, Performance Standards for Antimicrobial Disk Susceptibility Tests; approved Standard; M2-A), vol. 26 NO. 1 9th ed.
as §1, with “A test for” for “Test for”, “compounds were” for “compounds may be”, “ed. The samples were dissolved in 10 ml of sterile Milli-Q water by magnetic stirring overnight at 20° C.” for “ed.”
(§2) Two doses of the samples were tested in duplicate, a) and b). The size of the inhibition zones were measured in mm after incubation.

[3] = tested on: Escherichia coli ATCC 8739; assay: Antimicrobial disk susceptibility test (CLSI M2-A9), E. coli; type: cell-based
Experimental: as §1
as §1, with “A test for” for “Test for”, “compounds were” for “compounds may be”, “ed. The samples were dissolved in 10 ml of sterile Milli-Q water by magnetic stirring overnight at 20° C.” for “ed.”
as §2

[4] = tested on: Pseudomonas aeruginosa ATCC 9027; assay: Antimicrobial disk susceptibility test (CLSI M2-A9), P. aeruginosa; type: cell-based
Experimental: as §1
as §1, with “A test for” for “Test for”, “compounds were” for “compounds may be”, “ed. The samples were dissolved in 10 ml of sterile Milli-Q water by magnetic stirring overnight at 20° C.” for “ed.”
as §2

[5] = tested on: Klebsiella pneumonia ATCC 35657; assay: Antimicrobial disk susceptibility test (CLSI M2-A9), K. pneumonia; type: cell-based
Experimental: as §1
as §1, with “A test for” for “Test for”, “compounds were” for “compounds may be”, “ed. The samples were dissolved in 10 ml of sterile Milli-Q water by magnetic stirring overnight at 20° C.” for “ed.”
as §2

[6] = 10 μg/disk, one value per organism (reference)

## CC[C@H]1OC(=O)[C@H](C)[C@@H](O[C@H]2C[C@@](C)(OC)[C@@H](O)[C@H](C)O2)[C@H](C)[C@@H](O[C@@H]2O[C@H](C)C[C@H](N(C)C)[C@H]2O)[C@](C)(O)C[C@@H](C)C(=O)[C@H](C)[C@@H](O)[C@]1(C)O [erythromycin]
[1]
  effect on transepithelial electrical resistance / processing of tight junction proteins: not observed

## CCC1OC(=O)C(C)C(OC2CC(C)(OC)C(C)C(C)O2)C(C)C(OC2CC(N(C)C)CC(C)O2)C(C)(O)CC(C)CN(C)C(C)C(O)C1(C)O (stereo not drawn) [PP008]
[2]; 5 μg/disk, duplicate a)
  size of the inhibition zone, S. aureus a): <1 mm
[2]; 5 μg/disk, duplicate b)
  size of the inhibition zone, S. aureus b): <1 mm
[2]; 10 μg/disk, duplicate a)
  size of the inhibition zone, S. aureus a): <1 mm
[2]; 10 μg/disk, duplicate b)
  size of the inhibition zone, S. aureus b): <1 mm
[3]; 5 μg/disk, duplicate a)
  size of the inhibition zone, E. coli a): <1 mm
[3]; 5 μg/disk, duplicate b)
  size of the inhibition zone, E. coli b): <1 mm
[3]; 10 μg/disk, duplicate a)
  size of the inhibition zone, E. coli a): <1 mm
[3]; 10 μg/disk, duplicate b)
  size of the inhibition zone, E. coli b): <1 mm
[4]; 5 μg/disk, duplicate a)
  size of the inhibition zone, P. aeruginosa a): <1 mm
[4]; 5 μg/disk, duplicate b)
  size of the inhibition zone, P. aeruginosa b): <1 mm
[4]; 10 μg/disk, duplicate a)
  size of the inhibition zone, P. aeruginosa a): <1 mm
[4]; 10 μg/disk, duplicate b)
  size of the inhibition zone, P. aeruginosa b): <1 mm
[5]; 5 μg/disk, duplicate a)
  size of the inhibition zone, K. pneumonia a): <1 mm
[5]; 5 μg/disk, duplicate b)
  size of the inhibition zone, K. pneumonia b): <1 mm
[5]; 10 μg/disk, duplicate a)
  size of the inhibition zone, K. pneumonia a): <1 mm
[5]; 10 μg/disk, duplicate b)
  size of the inhibition zone, K. pneumonia b): <1 mm

## Gentamicin [reference compound]
[2]; [6]
  size of the inhibition zone, S. aureus: 30.4 mm
[3]; [6]
  size of the inhibition zone, E. coli: 27.9 mm
[4]; [6]
  size of the inhibition zone, P. aeruginosa: 27.2 mm
[5]; [6]
  size of the inhibition zone, K. pneumonia: 24.7 mm

## penicillin
[1]
  effect on transepithelial electrical resistance / processing of tight junction proteins: not observed

## CC[C@H]1OC(=O)[C@H](C)[C@@H](O[C@H]2C[C@@](C)(OC)[C@@H](O)[C@H](C)O2)[C@H](C)[C@@H](O[C@@H]2O[C@H](C)C[C@H](N(C)C)[C@H]2O)[C@](C)(O)C[C@@H](C)CN(C)[C@H](C)[C@@H](O)[C@]1(C)O [azithromycin]
[1]
  effect on transepithelial electrical resistance / processing of tight junction proteins: may increase the transepithelial electrical resistance

## CC[C@H]1OC(=O)[C@H](C)C(O[C@H]2C[C@@](C)(OC)[C@@H](C)[C@H](C)O2)[C@H](C)[C@@H](OC2O[C@H](C)C[C@H](N(C)C)[C@H]2O)[C@](C)(O)C[C@@H](C)CN(C)[C@H](C)[C@@H](O)[C@]1(C)O (stereo partly drawn) [PP002]
[2]; Staphylococcus aureus, ATTC6538; 5 μg/disk, duplicate a); read-out: size of the inhibition zone, S. aureus a)
  zone of inhibition at 5 µg/disc: < 1 mm
[2]; Staphylococcus aureus, ATTC6538; 5 μg/disk, duplicate b); read-out: size of the inhibition zone, S. aureus b)
  zone of inhibition at 5 µg/disc: < 1 mm
[2]; Staphylococcus aureus, ATTC6538; 10 μg/disk, duplicate a); read-out: size of the inhibition zone, S. aureus a)
  zone of inhibition at 10 µg/disc: < 1 mm
[2]; Staphylococcus aureus, ATTC6538; 10 μg/disk, duplicate b); read-out: size of the inhibition zone, S. aureus b)
  zone of inhibition at 10 µg/disc: < 1 mm
[3]; Escherichia coli, ATCC8739; 5 μg/disk, duplicate a); read-out: size of the inhibition zone, E. coli a)
  zone of inhibition at 5 µg/disc: < 1 mm
[3]; Escherichia coli, ATCC8739; 5 μg/disk, duplicate b); read-out: size of the inhibition zone, E. coli b)
  zone of inhibition at 5 µg/disc: < 1 mm
[3]; Escherichia coli, ATCC8739; 10 μg/disk, duplicate a); read-out: size of the inhibition zone, E. coli a)
  zone of inhibition at 10 µg/disc: < 1 mm
[3]; Escherichia coli, ATCC8739; 10 μg/disk, duplicate b); read-out: size of the inhibition zone, E. coli b)
  zone of inhibition at 10 µg/disc: < 1 mm
[4]; Pseudomonas aeruginosa, ATCC9027; 5 μg/disk, duplicate a); read-out: size of the inhibition zone, P. aeruginosa a)
  zone of inhibition at 5 µg/disc: < 1 mm
[4]; Pseudomonas aeruginosa, ATCC9027; 5 μg/disk, duplicate b); read-out: size of the inhibition zone, P. aeruginosa b)
  zone of inhibition at 5 µg/disc: < 1 mm
[4]; Pseudomonas aeruginosa, ATCC9027; 10 μg/disk, duplicate a); read-out: size of the inhibition zone, P. aeruginosa a)
  zone of inhibition at 10 µg/disc: < 1 mm
[4]; Pseudomonas aeruginosa, ATCC9027; 10 μg/disk, duplicate b); read-out: size of the inhibition zone, P. aeruginosa b)
  zone of inhibition at 10 µg/disc: < 1 mm
[5]; Klebsiella pneumoniae, ATCC35657; 5 μg/disk, duplicate a); read-out: size of the inhibition zone, K. pneumonia a)
  zone of inhibition at 5 µg/disc: < 1 mm
[5]; Klebsiella pneumoniae, ATCC35657; 5 μg/disk, duplicate b); read-out: size of the inhibition zone, K. pneumonia b)
  zone of inhibition at 5 µg/disc: < 1 mm
[5]; Klebsiella pneumoniae, ATCC35657; 10 μg/disk, duplicate a); read-out: size of the inhibition zone, K. pneumonia a)
  zone of inhibition at 10 µg/disc: < 1 mm
[5]; Klebsiella pneumoniae, ATCC35657; 10 μg/disk, duplicate b); read-out: size of the inhibition zone, K. pneumonia b)
  zone of inhibition at 10 µg/disc: < 1 mm
